From ChEMBL document CHEMBL3507680, “University of Dundee, Gates Library screen for HepG2 cell viability” come the findings set out here.

The structures appear in SMILES notation.

This data set is described as follows: Human HepG2 cell viability assay in 384 well format. Details: dose 125 nL, time 70.5 hour; cytotoxicity at 70.5 h: concentration not given beside the values. Format: toxicity, cell-based. The note with it: HepG2 cells, read-out: Inhibition.
For the compound `CCOc1c(Br)cc(C2C3=C(COC3=O)Nc3[nH]nc(C)c32)cc1OC` (stereo unspecified), the cytotoxicity at 70.5 h came to 29.2%.

In the case of `CC(C)Cn1ccc2c(NC(=O)c3n[nH]c4c3CCC4)cccc21`, the cytotoxicity at 70.5 h is 5.24%.

In the case of `CC(=O)Nc1cccc2c1ccn2CC(=O)Nc1ncc[nH]1`, the cytotoxicity at 70.5 h was -5.41%. As to `COc1ccc2nnc(CCCC(=O)NCCc3ccccn3)n2n1`, the cytotoxicity at 70.5 h was -3.59%. As to `CC(=O)Nc1cccc2c1ccn2CC(=O)Nc1nc[nH]n1`, the cytotoxicity at 70.5 h is -2.28%. In the case of `COc1ccc2c(c1)s/c(=N\C(=O)CSCC(=O)Nc1nccs1)n2C`, the cytotoxicity at 70.5 h came out at 16.4%. Regarding `COCCN(C)C(=O)c1nc2c(s1)CCCN2S(C)(=O)=O`, the cytotoxicity at 70.5 h was determined as 3.66%.

On to `CC(C)NC(=O)[C@H]1C[C@H]2NCCO[C@@H]2C1`, for which the cytotoxicity at 70.5 h was 3.88%. `O=C(Nc1ccccc1)N1C[C@@H]2OCCN(C(=O)c3ccco3)[C@@H]2C1`: the cytotoxicity at 70.5 h is -0.595%.

As to `Cc1cnc(N2C[C@@H]3[C@@H](C(=O)NCC(C)C)CCS(=O)(=O)[C@@H]3C2)nc1`, the cytotoxicity at 70.5 h came to 0.36%. Take `Cn1nc(CN2CCCC2)c2c1CN(C(=O)c1cnccn1)CC2`: the cytotoxicity at 70.5 h was -1.41%. To `CS(=O)(=O)N1CCCc2sc(C(=O)NC3CC3)nc21` belongs -3.24%; to `COCCO[C@H]1CCN(c2cc(OC)ncn2)[C@H]1Cc1cnn(C)c1`, -4.71%. On to `O=S(=O)(C1CC1)N1CCO[C@@H]2CN(Cc3ccco3)C[C@@H]2C1`, for which the cytotoxicity at 70.5 h was -2.12%. Regarding `CN1CCN(C(=O)C[C@@H]2COC[C@H]3CN(c4ccncn4)C[C@@H]23)CC1`, the cytotoxicity at 70.5 h amounted to 12.2%.

Consider `CC(C)NC(=O)c1nc2c(s1)CCCN2c1ccccc1`, for which the cytotoxicity at 70.5 h is 5.99%. Regarding `COCC1CC2(CCN(C(=O)C3CCSCC3)CC2)CO1` (stereo unspecified), the cytotoxicity at 70.5 h was 8.61%.

As to `Cc1ccc(CN2CCC3(CCCN(C(=O)N(C)C)C3)C2)cc1` (stereo unspecified), the cytotoxicity at 70.5 h is -6.47%. With `CN(C)C(=O)N1CCCC2(CCN(Cc3ccncc3)C2)C1` (stereo unspecified), the cytotoxicity at 70.5 h was -7.12%. For the compound `CC(C)N1CCO[C@H]2CN(S(=O)(=O)c3ccc(C#N)cc3)C[C@H]21`, the cytotoxicity at 70.5 h was -11.6%.

As for `CC1=N[C@@]2(CC[C@@H]3CN(CC(C)C)C[C@@H]32)C(=O)N1`, the cytotoxicity at 70.5 h was -4.43%. On to `CN(C)C(=O)c1nc2c(s1)CCCN2Cc1ccccc1`, for which the cytotoxicity at 70.5 h is -7.89%.

`CC(=O)N1CCCC2(CCN(Cc3ccc(Cl)c(C(F)(F)F)c3)C2)C1` (stereo unspecified): the cytotoxicity at 70.5 h is -5.69%. Regarding `CC(C)NC(=O)c1nc2c(s1)CCCN2Cc1ccccc1`, the cytotoxicity at 70.5 h was -6.15%. Regarding `O=S(=O)(C1CC1)N1CCOC2(CCCN(c3cccc(F)c3)C2)C1` (stereo unspecified), the cytotoxicity at 70.5 h was -3.57%. `CN(C)C(=O)CN1CCO[C@H]2CN(c3ccccn3)C[C@H]21`: the cytotoxicity at 70.5 h is -3.6%. To `CCS(=O)(=O)N1CCC2(CCCN(c3ncc(F)cn3)C2)C1` (stereo unspecified) belongs -6.13%.

In the case of `O=C(Cc1ccccn1)N1CCC2(CC1)CN(c1ccccn1)CCO2`, the cytotoxicity at 70.5 h is -6.92%. `CCS(=O)(=O)N1CCC2(CN(C(=O)c3cscn3)C2)C1`: the cytotoxicity at 70.5 h is -3.48%. With `Cc1ccc(C(=O)N2C[C@@H]3CN(c4ncccn4)C[C@@H]3C2)cc1`, the cytotoxicity at 70.5 h is -4.94%. Consider `COCCC(=O)N1CC2(CCN(c3ccccc3)C2)C1`, for which the cytotoxicity at 70.5 h is 3.88%. As to `Cc1cccc(N2CCCC3(C2)CN(S(C)(=O)=O)CCO3)c1` (stereo unspecified), the cytotoxicity at 70.5 h was -4.48%.

Consider `COCCN1C(=O)CC[C@@H]2[C@H]1CCN2C(=O)C1CCOCC1`, for which the cytotoxicity at 70.5 h is -7.67%.

As to `Cc1cccc(Cl)c1NC(=O)Cn1cc(C(=O)O)ccc1=O`, the cytotoxicity at 70.5 h was -2.75%. For `O=C(Cn1cc(C(=O)O)ccc1=O)NCc1ccc(F)cc1Cl`, the cytotoxicity at 70.5 h was 5.89%.

For `O=C(Cn1cc(C(=O)O)ccc1=O)Nc1cc(F)ccc1F`, the cytotoxicity at 70.5 h was -9.56%. To `COc1cccc(C2C3=C(COC3=O)Nc3[nH]nc(C)c32)c1OC` (stereo unspecified) belongs -3.26%. Under `CCN(CC)c1ccc(C2C3=C(COC3=O)Nc3[nH]nc(C)c32)cc1` (stereo unspecified) stands -4.13%.

With `O=C1CC(c2ccc(F)cc2)Cc2[nH]c(=O)c(C(=O)O)cc21` (stereo unspecified), the cytotoxicity at 70.5 h is -8.55%. `O=C1N(c2ccc(Cl)cc2)Cc2nc(=O)[nH]n21`: the cytotoxicity at 70.5 h is -11.3%. As to `O=C1N(c2cccc(F)c2)Cc2nc(=O)[nH]n21`, the cytotoxicity at 70.5 h is -7.69%. As for `COc1cccc(C2SCC(=O)Nc3ccsc32)c1` (stereo unspecified), the cytotoxicity at 70.5 h is 0.777%. To `O=C1CC(c2ccc(C(=O)O)cc2)c2ncn(-c3ccc(Cl)cc3)c2N1` (stereo unspecified) belongs -13%.

For the compound `O=C1CC(c2ccc(C(=O)O)cc2)c2ncn(-c3ccccc3Cl)c2N1` (stereo unspecified), the cytotoxicity at 70.5 h was -12.6%. As to `COc1cccc(N2Cc3nc(=O)[nH]n3C2=O)c1`, the cytotoxicity at 70.5 h was -16.5%. As to `CC1CCc2nc(O)c(C(=O)NCc3ccncc3)cc2C1` (stereo unspecified), the cytotoxicity at 70.5 h was 5.88%.

In the case of `CC1CCc2nc(O)c(C(=O)NCc3ccccc3F)cc2C1` (stereo unspecified), the cytotoxicity at 70.5 h was determined as 7.1%. As for `COc1ccc(CNC(=O)c2cc3c(nc2O)CCC(C)C3)cc1` (stereo unspecified), the cytotoxicity at 70.5 h was -8.97%. For `COC(=O)c1ccc(C2SCC(=O)Nc3ccsc32)cc1` (stereo unspecified), the cytotoxicity at 70.5 h was -8.05%. As to `O=C1CSC(c2ccc(O)cc2)c2sccc2N1` (stereo unspecified), the cytotoxicity at 70.5 h came out at 3%. As for `O=C1CC(c2cccs2)Cc2nc(O)c(C(=O)N3CCCC3)cc21` (stereo unspecified), the cytotoxicity at 70.5 h is -4.55%. In the case of `CCOc1ccc(-n2ccc3nc(N4CCCC4)ncc3c2=O)cc1`, the cytotoxicity at 70.5 h is -2.37%.

With `O=c1c2cnc(N3CCCCC3)nc2ccn1-c1ccccc1F`, the cytotoxicity at 70.5 h is 8.21%. As for `Cc1ccccc1-n1ccc2nc(N3CCCC3)ncc2c1=O`, the cytotoxicity at 70.5 h was -13.6%. Take `Cc1c(C)n(CC(O)CN2CCCCCC2)c2c(Cl)cccc12` (stereo unspecified): the cytotoxicity at 70.5 h was 20.5%.

As to `CN1N=C(C(=O)N2CCCCC2)S(=O)(=O)c2ccccc21`, the cytotoxicity at 70.5 h was 1.74%. Under `CSc1nc2cc(C)n(CC(N)=O)c2c(=O)n1CC(C)C` stands 0.849%. In the case of `O=c1[nH]c2nc(NCC3CCCO3)ncc2c(=O)n1-c1ccc(F)cc1` (stereo unspecified), the cytotoxicity at 70.5 h was determined as 1.97%. Turning to `CCc1noc(-c2ccc(SCC(=O)O)nc2)n1`, the cytotoxicity at 70.5 h worked out at 13.8%. As to `COc1ccc(NC(=O)c2cnc(N(C)C3CCCCC3)nc2N)cc1`, the cytotoxicity at 70.5 h came out at 2.82%. As for `COc1ccc(Cn2c(=O)n(C)c(=O)c3sccc32)cc1`, the cytotoxicity at 70.5 h came out at 3.39%. On to `COCCc1noc(-c2ccc(=O)[nH]c2)n1`, for which the cytotoxicity at 70.5 h worked out at 2.52%. On to `Cc1cccc(N2CCN(c3ccn4c(=O)[nH]nc4n3)CC2)c1C`, for which the cytotoxicity at 70.5 h was 3.43%. With `Cc1c(C)n(CC(O)CN2CCOCC2)c2c(Cl)cccc12` (stereo unspecified), the cytotoxicity at 70.5 h stood at 11.2%. Under `Cc1c(C)n(CC(O)CN2CCN(CCO)CC2)c2c(Cl)cccc12` (stereo unspecified) stands 10%; under `COCCN1CCCn2cnc(CNC3CCCC3)c2C1`, 0.0497%; under `Cn1nnc2c1CCN(Cc1ccoc1)C2COCc1ccccc1` (stereo unspecified), 1.66%. In the case of `CN(C)C1CC2(CCN(C(=O)c3csnn3)CC2)c2ccccc21` (stereo unspecified), the cytotoxicity at 70.5 h was -0.291%.

As for `CCOC1CC2(CCN(Cc3cccn3C)CC2)C1`, the cytotoxicity at 70.5 h was found to be 2.31%.

With `Cc1cc(CN2C[C@@H]3CN(C(=O)c4cccn4C)CCO[C@@H]3C2)no1`, the cytotoxicity at 70.5 h was found to be 1.95%. As for `CC(C)COC1CC2(CCN(Cc3nccn3C)CC2)C1`, the cytotoxicity at 70.5 h was determined as 6.92%. To `COC1CC2(CCN(Cc3nccn3C)CC2)C1` belongs -5.43%; to `O=C(c1ccsc1)N1CCO[C@@H]2CN(Cc3ccccn3)CC[C@@H]2C1`, 8.56%; to `CC(C)Nc1ncnc2c1CCN(C(=O)NCc1cccnc1)CC2`, -1.24%. For the compound `CCOc1ncnc2c1CCN(C(=O)NCc1cccnc1)CC2`, the cytotoxicity at 70.5 h worked out at 6.36%. Turning to `CCS(=O)(=O)N1C[C@@H]2CN(Cc3ccco3)CCO[C@@H]2C1`, the cytotoxicity at 70.5 h was 27.9%. `COc1cc(N2CCC3(CCCN(C(=O)c4cccnc4)C3)C2)ncn1` (stereo unspecified): the cytotoxicity at 70.5 h stood at 16.7%. `CCN1CCO[C@@H]2CN(C(=O)COC3CCCC3)C[C@@H]2C1`: the cytotoxicity at 70.5 h worked out at 7.26%. Under `CN1CCO[C@H]2CN(S(=O)(=O)c3ccc(C#N)cc3)C[C@H]21` stands 3.3%; under `Cc1nc(NCc2ccco2)nc2c1COCC21CCNC1` (stereo unspecified), -8.24%; under `COCC(=O)N1CCC2(CC1)CNc1ccc(F)cc12`, -9.36%. For `Cc1cnc(N2C[C@H]3CCN(CC4CC4)C[C@@H]3C2)nc1`, the cytotoxicity at 70.5 h was found to be 7.8%. Under `Cc1cccc(N2CCCC3(C2)CN(S(=O)(=O)C2CC2)CCO3)c1` (stereo unspecified) stands -3.02%; under `c1csc(CN2CCc3onc(Cn4cccc4)c3C2)c1`, 2.81%; under `CC(=O)N1CCn2c(-c3cccc(F)c3)cnc2C12CCNCC2`, -7.49%. As for `O=C(Cc1ccccn1)N1CCC2(CC1)CN(CC1CC1)C(=O)CO2`, the cytotoxicity at 70.5 h is -5.52%. For `Cc1cccc(COCC2c3nnn(C)c3CCN2Cc2ccoc2)n1` (stereo unspecified), the cytotoxicity at 70.5 h is -5.52%. For the compound `c1nc2n(c1CN1CCCCC1)CCN(C1CCOC1)CC2` (stereo unspecified), the cytotoxicity at 70.5 h was -3.62%. `CC(C)NC1CCc2c(ccc(=O)n2CCN(C)C)C1` (stereo unspecified): the cytotoxicity at 70.5 h was determined as 7.71%. With `COCCN1CCCn2cnc(CNC(=O)N(C)C)c2C1`, the cytotoxicity at 70.5 h was -3.75%. Turning to `CN(C)Cc1noc2c1CN(C(=O)c1ccncc1)CC2`, the cytotoxicity at 70.5 h is 5.83%.

Consider `CC(=O)N1[C@H](CN(C)C)C[C@@H]2CN(c3ncc(F)cn3)CC[C@@H]21`, for which the cytotoxicity at 70.5 h is -6.27%.

With `CN(C)C(=O)NCc1ncn2c1CN(Cc1cccs1)CCC2`, the cytotoxicity at 70.5 h is -3.13%.

Turning to `CC(C)NC1CCc2c(ccc(=O)n2CCN2CCOCC2)C1` (stereo unspecified), the cytotoxicity at 70.5 h was -6.6%. `Cn1cc2c(n1)C(CNCC1CCOCC1)OCC2` (stereo unspecified): the cytotoxicity at 70.5 h turned out to be 4.92%.

As for `Cc1cnc(N2CC[C@H]3[C@H](C[C@@H](CN(C)C)N3C)C2)nc1`, the cytotoxicity at 70.5 h was -6.09%.
